The record followed here is ChEMBL document CHEMBL1212824, “A type-II kinase inhibitor capable of inhibiting the T315I "gatekeeper" mutant of Bcr-Abl” (J Med Chem, 2010).

Data set [1] is described as follows: cells. Conditions: Mus musculus, BaF3.
Data set [2] in a line: cells. Conditions: Mus musculus, BaF3. This is another data set of the same source.
The nature of data set [3]: cells. Conditions: Mus musculus, BaF3. The source holds these as a separate data set.
The nature of data set [4]: cells. The note with it: Mus musculus, BaF3. This is another data set of the same source.
Data set [5] in a line: cells. Conditions: Mus musculus, BaF3. The source holds these as a separate data set.
Data set [6] can be described thus: cells. Conditions: Mus musculus, BaF3. The source holds these as a separate data set.
A short description of data set [7]: cells. Conditions: Mus musculus, BaF3. The source holds these as a separate data set.
The nature of data set [8]: cells. The note with it: Mus musculus, BaF3. The source holds these as a separate data set.
For data set [9], the target named is Dual specificity mitogen-activated protein kinase kinase 1 (Homo sapiens) (UniProt Q02750). Description: Inhibition of human MEK1 at 10 uM.
Data set [10] addresses Dual specificity mitogen-activated protein kinase kinase 6 (Homo sapiens) (UniProt P52564). Put plainly: Inhibition of human MKK6 at 10 uM.
Data set [11] addresses 3-phosphoinositide-dependent protein kinase 1 (Homo sapiens) (UniProt O15530). Put plainly: Inhibition of human PDK1 at 10 uM.
The target of data set [12] is Mitogen-activated protein kinase 11 (Homo sapiens) (UniProt Q15759). Put plainly: Inhibition of human SAPK2b at 10 uM.
Data set [13] addresses Inhibitor of nuclear factor kappa-B kinase subunit alpha (Homo sapiens) (UniProt O15111). Description: Inhibition of human IKKalpha at 10 uM.
Data set [14] deals with Receptor-type tyrosine-protein kinase FLT3 (Homo sapiens) (UniProt P36888). Put plainly: Inhibition of human Flt3 at 10 uM.
Data set [15] in a line: in vivo. The note with it: BALB/c, mouse, iv, 5 mg/kg.
Data set [16] relates to Mus musculus. Description: Tlast in BALB/c mouse at 5 mg/kg, iv. It is filed as ADME, organism-based. Further details: dose 5 mg/kg, route intravenous. Conditions: in vivo.
Data set [17] is filed under the species Homo sapiens. Conditions: 10 uM.
Data set [18] has as its target Tyrosine-protein kinase receptor UFO (Homo sapiens) (UniProt P30530). Description: Inhibition of human Axl at 10 uM.
Data set [19] concerns the target Tyrosine-protein kinase Lck (Homo sapiens) (UniProt P06239). Description: Inhibition of human Lck at 10 uM.
A short description of data set [20]: in vivo. The note with it: BALB/c, mouse, iv, 5 mg/kg. This is another data set of the same source.
The target of data set [21] is Serine/threonine-protein kinase PAK 2 (Homo sapiens) (UniProt Q13177). Description: Inhibition of human PAK2 at 10 uM.
The target of data set [22] is BDNF/NT-3 growth factors receptor (Homo sapiens) (UniProt Q16620). Description: Inhibition of human TrkB at 10 uM.
Data set [23] in a line: cells. The note with it: Homo sapiens, U-87 MG.
Data set [24] addresses Ribosomal protein S6 kinase beta-1 (Homo sapiens) (UniProt P23443). Description: Inhibition of human p70S6K at 10 uM.
Data set [25] deals with COLO 205. Description: cells. Conditions: Homo sapiens.
Data set [26] has as its target Protein kinase C alpha type (Homo sapiens) (UniProt P17252). Description: Inhibition of human PKCalpha at 10 uM.
Data set [27] deals with RAC-alpha serine/threonine-protein kinase (Homo sapiens) (UniProt P31749). Put plainly: Inhibition of human PKBalpha at 10 uM.
The species named for data set [28] is Mus musculus. The note with it: in vivo, po, 20 mg/kg.
Data set [29] addresses RAF proto-oncogene serine/threonine-protein kinase (Homo sapiens) (UniProt P04049). Description: Inhibition of human c-RAF at 10 uM.
Data set [30] deals with Mitogen-activated protein kinase 12 (Homo sapiens) (UniProt P53778). Put plainly: Inhibition of human SAPK3 at 10 uM.
In data set [31] the target is Cytoplasmic tyrosine-protein kinase BMX (Homo sapiens) (UniProt P51813). Put plainly: Inhibition of human Bmx at 10 uM.
Data set [32] has as its target Tyrosine-protein kinase SYK (Homo sapiens) (UniProt P43405). Put plainly: Inhibition of human Syk at 10 uM.
For data set [33], the target named is Platelet-derived growth factor receptor alpha (Homo sapiens) (UniProt P16234). Description: Inhibition of human PDGFRalpha at 10 uM.
The test system of data set [34] is Mus musculus. Description: Tlast in BALB/c mouse at 20 mg/kg, po. The data set is classed as ADME, organism-based. Further details: dose 20 mg/kg, route oral. The note with it: in vivo.
The target in data set [35] is Cyclin-dependent kinase 1/cyclin B1 (Homo sapiens) (UniProt P06493+P14635). Description: Inhibition of human CDK1/cyclinB at 10 uM. The data set is classed as protein-complex assay.
Data set [36] in a line: Tmax in BALB/c mouse at 5 mg/kg, iv. The data set is classed as ADME, organism-based. Further details: dose 5 mg/kg, route intravenous. Conditions: in vivo.
The target of data set [37] is Serine/threonine-protein kinase Sgk1 (Homo sapiens) (UniProt O00141). Description: Inhibition of human SGK at 10 uM.
Data set [38] concerns the target Ribosomal protein S6 kinase alpha-1 (Homo sapiens) (UniProt Q15418). Put plainly: Inhibition of human Rsk1 at 10 uM.
The target of data set [39] is Fibroblast growth factor receptor 3 (Homo sapiens) (UniProt P22607). Description: Inhibition of human FGFR3 at 10 uM.
Data set [40] has as its target Mitogen-activated protein kinase 8 (Homo sapiens) (UniProt P45983). Put plainly: Inhibition of human JNK1alpha1 at 10 uM.
Data set [41] deals with Mitogen-activated protein kinase 1 (Homo sapiens) (UniProt P28482). Put plainly: Inhibition of human MAPK1 at 10 uM.
Data set [42] has as its target Mitogen-activated protein kinase 14 (Homo sapiens) (UniProt Q16539). Description: Inhibition of human SAPK2a at 10 uM.
The target of data set [43] is Serine/threonine-protein kinase Chk2 (Homo sapiens) (UniProt O96017). Put plainly: Inhibition of human CHK2 at 10 uM.
Data set [44] is filed under the species Mus musculus. The note with it: 10 uM.
Data set [45] deals with Serine/threonine-protein kinase D2 (Homo sapiens) (UniProt Q9BZL6). Description: Inhibition of human PKD2 at 10 uM.
A short description of data set [46]: in vivo. The note with it: BALB/c, mouse, iv, 5 mg/kg. This is another data set of the same source.
Data set [47] has as its target Glycogen synthase kinase-3 (Homo sapiens) (UniProt P49840+P49841). Put plainly: Inhibition of human GSK3ss at 10 uM. The data set is classed as protein assay.
Data set [48] addresses Insulin receptor (Homo sapiens) (UniProt P06213). Put plainly: Inhibition of human IR at 10 uM.
Data set [49] has as its target Tyrosine-protein kinase ZAP-70 (Homo sapiens) (UniProt P43403). Put plainly: Inhibition of human ZAP-70 at 10 uM.
Data set [50] in a line: cells. Conditions: Homo sapiens, HEK-293T.
The subject of data set [51] is SW-620. Description: cells. The note with it: Homo sapiens.
In data set [52] the target is Protein kinase C theta type (Homo sapiens) (UniProt Q04759). Put plainly: Inhibition of human PKCtheta at 10 uM.
Data set [53] has as its target Tyrosine-protein kinase CSK (Homo sapiens) (UniProt P41240). Description: Inhibition of human CSK at 10 uM.
Data set [54] has as its target Rho-associated protein kinase 2 (Homo sapiens) (UniProt O75116). Put plainly: Inhibition of human ROCK-2 at 10 uM.
Data set [55] deals with Calcium/calmodulin-dependent protein kinase type IV (Homo sapiens) (UniProt Q16566). Description: Inhibition of human CaMK4 at 10 uM.
The target in data set [56] is Casein kinase II (Homo sapiens) (UniProt P67870+P68400+P19784). Put plainly: Inhibition of human CK2 at 10 uM. It is filed as protein-complex assay.
The target in data set [57] is Aurora kinase A (Homo sapiens) (UniProt O14965). Put plainly: Inhibition of human Aurora A at 10 uM.
The target of data set [58] is MAP kinase-activated protein kinase 2 (Homo sapiens) (UniProt P49137). Description: Inhibition of human MAPKAP-K2 at 10 uM.
In data set [59] the target is Mitogen-activated protein kinase 9 (Homo sapiens) (UniProt P45984). Put plainly: Inhibition of human JNK2alpha2 at 10 uM.
Data set [60] has as its target Tyrosine-protein kinase Fes/Fps (Homo sapiens) (UniProt P07332). Put plainly: Inhibition of human Fes at 10 uM.

Chain of Glycogen synthase kinase-3 (Homo sapiens) (P49840 whole entry, looked up): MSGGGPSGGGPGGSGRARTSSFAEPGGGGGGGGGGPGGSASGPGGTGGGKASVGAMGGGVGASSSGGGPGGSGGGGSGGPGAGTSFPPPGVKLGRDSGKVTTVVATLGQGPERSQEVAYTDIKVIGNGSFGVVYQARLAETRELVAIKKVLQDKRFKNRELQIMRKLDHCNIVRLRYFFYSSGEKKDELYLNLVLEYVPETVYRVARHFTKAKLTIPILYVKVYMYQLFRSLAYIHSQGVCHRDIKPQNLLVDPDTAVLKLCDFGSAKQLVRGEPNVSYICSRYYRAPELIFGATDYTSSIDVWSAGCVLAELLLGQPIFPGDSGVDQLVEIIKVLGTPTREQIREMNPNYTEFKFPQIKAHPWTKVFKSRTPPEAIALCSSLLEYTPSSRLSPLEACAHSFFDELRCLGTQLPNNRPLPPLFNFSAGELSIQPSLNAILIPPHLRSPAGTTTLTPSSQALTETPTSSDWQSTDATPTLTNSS
Chain of Glycogen synthase kinase-3 (Homo sapiens) (P49841 whole entry, looked up): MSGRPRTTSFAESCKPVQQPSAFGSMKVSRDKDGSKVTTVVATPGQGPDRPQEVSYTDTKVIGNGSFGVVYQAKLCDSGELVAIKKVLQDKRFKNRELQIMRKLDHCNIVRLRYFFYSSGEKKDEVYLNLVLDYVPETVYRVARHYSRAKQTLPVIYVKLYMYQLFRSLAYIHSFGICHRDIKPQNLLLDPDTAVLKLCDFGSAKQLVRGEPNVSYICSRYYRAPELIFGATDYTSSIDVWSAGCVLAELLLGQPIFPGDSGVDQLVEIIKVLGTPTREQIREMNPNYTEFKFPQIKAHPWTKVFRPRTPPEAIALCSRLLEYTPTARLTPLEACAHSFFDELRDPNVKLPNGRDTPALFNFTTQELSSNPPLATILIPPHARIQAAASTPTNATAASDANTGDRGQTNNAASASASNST
Chain of Mitogen-activated protein kinase 14 (Homo sapiens) (Q16539 whole entry): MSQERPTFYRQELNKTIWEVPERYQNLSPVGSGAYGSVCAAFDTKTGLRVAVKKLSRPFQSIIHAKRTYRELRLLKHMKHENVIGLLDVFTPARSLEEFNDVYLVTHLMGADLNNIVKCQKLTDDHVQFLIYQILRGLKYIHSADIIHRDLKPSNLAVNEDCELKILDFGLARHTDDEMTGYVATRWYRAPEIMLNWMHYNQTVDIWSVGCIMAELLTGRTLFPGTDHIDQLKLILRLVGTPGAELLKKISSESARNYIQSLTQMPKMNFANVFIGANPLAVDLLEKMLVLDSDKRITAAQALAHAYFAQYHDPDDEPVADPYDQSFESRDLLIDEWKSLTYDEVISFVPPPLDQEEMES
Chain of Calcium/calmodulin-dependent protein kinase type IV (Homo sapiens) (Q16566 whole entry): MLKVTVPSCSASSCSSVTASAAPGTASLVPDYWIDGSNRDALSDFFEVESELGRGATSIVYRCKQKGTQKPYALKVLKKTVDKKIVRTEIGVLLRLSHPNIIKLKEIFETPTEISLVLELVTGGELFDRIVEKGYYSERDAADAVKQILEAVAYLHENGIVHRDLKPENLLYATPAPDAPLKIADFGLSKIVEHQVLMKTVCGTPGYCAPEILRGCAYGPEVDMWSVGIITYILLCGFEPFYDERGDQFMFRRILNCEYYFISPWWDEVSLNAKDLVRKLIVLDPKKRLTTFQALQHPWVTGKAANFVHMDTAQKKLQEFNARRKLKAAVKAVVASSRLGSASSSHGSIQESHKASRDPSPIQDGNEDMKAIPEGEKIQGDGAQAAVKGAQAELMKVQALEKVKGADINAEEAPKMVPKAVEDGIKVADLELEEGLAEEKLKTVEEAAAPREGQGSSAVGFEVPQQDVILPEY
Chain of Mitogen-activated protein kinase 1 (Homo sapiens) (P28482 whole entry): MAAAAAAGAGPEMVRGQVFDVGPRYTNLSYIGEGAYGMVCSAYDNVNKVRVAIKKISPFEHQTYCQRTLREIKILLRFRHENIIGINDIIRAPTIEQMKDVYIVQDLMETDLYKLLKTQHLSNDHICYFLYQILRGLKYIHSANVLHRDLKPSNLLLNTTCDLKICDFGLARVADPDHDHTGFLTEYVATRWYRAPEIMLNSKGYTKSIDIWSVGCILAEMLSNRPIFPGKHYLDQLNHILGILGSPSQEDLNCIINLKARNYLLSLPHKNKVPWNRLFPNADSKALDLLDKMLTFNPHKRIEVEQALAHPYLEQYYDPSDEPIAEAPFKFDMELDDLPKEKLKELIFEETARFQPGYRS
Chain of Rho-associated protein kinase 2 (Homo sapiens) (O75116 whole entry, looked up): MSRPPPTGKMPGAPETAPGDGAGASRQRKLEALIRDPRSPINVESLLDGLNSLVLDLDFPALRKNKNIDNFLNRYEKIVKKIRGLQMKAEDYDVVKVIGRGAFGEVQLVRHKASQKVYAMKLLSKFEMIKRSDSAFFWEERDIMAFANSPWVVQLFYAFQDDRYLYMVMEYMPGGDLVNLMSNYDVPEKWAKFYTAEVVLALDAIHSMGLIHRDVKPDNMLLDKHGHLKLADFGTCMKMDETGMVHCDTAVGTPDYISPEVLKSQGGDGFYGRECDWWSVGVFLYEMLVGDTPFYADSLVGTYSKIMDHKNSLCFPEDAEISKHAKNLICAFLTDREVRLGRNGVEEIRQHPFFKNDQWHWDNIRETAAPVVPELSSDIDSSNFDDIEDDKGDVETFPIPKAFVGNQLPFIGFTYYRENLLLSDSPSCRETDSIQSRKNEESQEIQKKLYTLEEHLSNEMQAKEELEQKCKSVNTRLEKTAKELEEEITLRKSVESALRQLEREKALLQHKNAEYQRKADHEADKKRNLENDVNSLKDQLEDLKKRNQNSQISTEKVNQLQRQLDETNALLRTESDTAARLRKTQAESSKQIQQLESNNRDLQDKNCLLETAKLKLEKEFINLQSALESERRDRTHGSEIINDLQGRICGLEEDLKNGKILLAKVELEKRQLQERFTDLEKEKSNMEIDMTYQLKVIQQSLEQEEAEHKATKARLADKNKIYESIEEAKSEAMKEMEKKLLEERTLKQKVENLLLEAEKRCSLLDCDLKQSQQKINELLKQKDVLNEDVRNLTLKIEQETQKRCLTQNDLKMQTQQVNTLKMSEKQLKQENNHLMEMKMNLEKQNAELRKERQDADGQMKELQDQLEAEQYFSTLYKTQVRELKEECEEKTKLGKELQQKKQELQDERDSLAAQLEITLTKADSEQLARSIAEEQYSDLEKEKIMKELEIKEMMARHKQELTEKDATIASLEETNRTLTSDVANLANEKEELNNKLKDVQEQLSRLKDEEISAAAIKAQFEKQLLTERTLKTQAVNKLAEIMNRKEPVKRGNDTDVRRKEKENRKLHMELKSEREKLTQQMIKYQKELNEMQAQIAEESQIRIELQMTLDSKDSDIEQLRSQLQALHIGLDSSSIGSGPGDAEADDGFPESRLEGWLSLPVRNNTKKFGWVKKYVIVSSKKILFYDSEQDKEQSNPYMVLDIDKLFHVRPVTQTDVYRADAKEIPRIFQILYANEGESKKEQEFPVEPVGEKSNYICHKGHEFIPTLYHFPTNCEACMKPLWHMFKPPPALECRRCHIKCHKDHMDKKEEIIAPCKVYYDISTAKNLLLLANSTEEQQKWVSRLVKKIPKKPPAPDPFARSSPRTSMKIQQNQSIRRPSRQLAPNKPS
Chain of Ribosomal protein S6 kinase beta-1 (Homo sapiens) (P23443 whole entry, looked up): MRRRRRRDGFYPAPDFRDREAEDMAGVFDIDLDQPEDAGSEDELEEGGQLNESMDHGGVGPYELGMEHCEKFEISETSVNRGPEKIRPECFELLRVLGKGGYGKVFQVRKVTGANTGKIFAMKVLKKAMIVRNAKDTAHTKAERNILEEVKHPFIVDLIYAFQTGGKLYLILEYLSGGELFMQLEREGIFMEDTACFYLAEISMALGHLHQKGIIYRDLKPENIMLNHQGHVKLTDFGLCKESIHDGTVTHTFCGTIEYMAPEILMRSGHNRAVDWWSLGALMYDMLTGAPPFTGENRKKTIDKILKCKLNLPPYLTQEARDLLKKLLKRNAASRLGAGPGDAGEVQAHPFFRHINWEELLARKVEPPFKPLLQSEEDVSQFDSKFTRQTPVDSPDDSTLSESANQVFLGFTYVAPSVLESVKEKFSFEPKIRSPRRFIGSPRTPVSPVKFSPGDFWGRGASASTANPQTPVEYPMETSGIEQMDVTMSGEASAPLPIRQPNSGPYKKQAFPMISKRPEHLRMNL
Chain of Dual specificity mitogen-activated protein kinase kinase 6 (Homo sapiens) (P52564 whole entry): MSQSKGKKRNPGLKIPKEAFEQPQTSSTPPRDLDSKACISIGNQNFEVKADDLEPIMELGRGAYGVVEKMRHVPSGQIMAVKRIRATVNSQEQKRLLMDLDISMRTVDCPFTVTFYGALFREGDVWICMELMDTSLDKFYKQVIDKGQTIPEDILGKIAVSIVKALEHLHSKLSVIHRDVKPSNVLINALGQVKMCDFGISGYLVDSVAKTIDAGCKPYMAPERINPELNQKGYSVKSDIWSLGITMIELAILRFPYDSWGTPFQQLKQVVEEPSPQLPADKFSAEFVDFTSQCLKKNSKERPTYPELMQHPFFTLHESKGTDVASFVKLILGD

The term IC50 denotes the concentration at which inhibition is half-maximal. For `Cc1ccc(NC(=O)c2cccc(C(F)(F)F)c2)cc1N1Cc2cnc(N)nc2N(C)C1=O`, the IC50 in data set [1], in data set [2], in [3], in data set [4], in data set [5] and in data set [6] was less than 5 nM throughout. In [7], the IC50 is less than 5 nM.
Consider `CNc1ncc2c(n1)N(C)C(=O)N(c1cc(NC(=O)c3cc(-n4cnc(C)c4)cc(C(F)(F)F)c3)ccc1C)C2`, for which the IC50 is less than 5 nM in data set [1]; less than 5 nM in data set [2]; less than 5 nM in data set [3]; 13 nM in data set [4]; 16 nM in [6]; 15 nM in data set [7]. Further, in [8], the IC50 was less than 5 nM.
Turning to `Cc1ccc(NC(=O)c2cccc(C(F)(F)F)c2)cc1N1Cc2cnc(Nc3ccccc3)nc2N(C)C1=O`, the IC50 in data set [1] is less than 5 nM; in data set [3] it was less than 5 nM; in data set [6], 19 nM; in data set [7], less than 5 nM.
By inhibition is commonly meant the change of the read-out against control, counted positive when it falls. The term half-life denotes the time needed for the level to fall by half in the phase considered. Broadly, the Vd is the apparent volume that relates the amount in the body to the concentration in plasma or blood. Low readings indicate little distribution into tissue, high ones wide distribution into tissue. One may read the Cmax as the peak of the concentration-time curve. In general, Tmax refers to the time at which the peak concentration occurs. As for `Cc1ccc(Nc2ncc3c(n2)N(C)C(=O)N(c2cc(NC(=O)c4cccc(C(F)(F)F)c4)ccc2C)C3)cn1`, the inhibition in data set [9] turned out to be 58%; in data set [10] it was 100%; in data set [11], 0%; in data set [12], 98%; in data set [13] it was 69%; in data set [14], 69%. In addition, the inhibition in data set [17] worked out at 49%; in data set [18], 69%; in [19], 99%; in data set [21] it was 45%; in data set [22], 100%; in data set [24], 92%. For the same compound, the inhibition was found to be 51% in data set [26]; 7% in data set [27]; 100% in data set [29]; 35% in data set [30]; 98% in data set [31]; 98% in data set [32]. The inhibition in [33] is 62%; in [35] it was 3%; in [37], 0%; in data set [38] it was 95%; in [39] it was 100%; in data set [40] it was 97%. In addition, the inhibition stood at 68% in data set [41]; 95% in data set [42]; 12% in data set [43]; 98% in [44]; 77% in [45]; 59% in [47]. Moreover, the inhibition in data set [48] was 89%; in [49] it was 6%; in data set [52], 22%; in data set [53] it was 100%; in data set [54] it was 2%; in data set [55], 0%. Besides, the inhibition is 6% in [56]; 31% in data set [57]; 0% in data set [58]; 99% in [59]; 98% in data set [60]. In addition, the half-life in data set [15] was 3.8 h. The Tlast in [16] and in [34] was 24 h throughout. Moreover, in [20], the Vd is 1.12 L/kg. Moreover, the IC50 in data set [23] is 5960 nM; in data set [25] it was 5 nM; in data set [50], greater than 10000 nM; in data set [51], 1 nM. In addition, the highest concentration (Cmax) was 3.62 µM in data set [28] and 11.7 µM in [46]. Moreover, the Tmax in data set [36] is 1.8 min.
